Key:
OVCAR-3 = settings: OVCAR-3, Ovarian; for CC50: read-out: 50% lethal concentration (LC50)
M14 = type: cell-based; settings: M14, Melanoma
HT29 = settings: HT29, Colon; for CC50: read-out: 50% lethal concentration (LC50)
HCT-116 = type: cell-based; settings: HCT-116, Colon
UACC-62 = settings: UACC-62, Melanoma; for CC50: read-out: 50% lethal concentration (LC50)
[1] = DPPH radical scavenging assay; settings: 25 µM test compound, 0.1 mM DPPH, acetonitrile, 30 min
How it was run: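 Compounds at 25 µM in acetonitrile mixed 1:2 with 0.1 mM DPPH in acetonitrile, kept 30 min in the dark at room temperature. Absorbance read at 517 nm; % scavenging = (Ac − As)/Ac × 100, Ac being DPPH blank. Ascorbic acid positive control.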

U251 = settings: U251, CNS
COLO 205 = settings: COLO 205, Colon
K-562 = settings: K-562, Leukemia; for CC50: read-out: 50% lethal concentration (LC50)
OVCAR-5 = settings: OVCAR-5, Ovarian
HCT-15 = settings: HCT-15, Colon; for CC50: read-out: 50% lethal concentration (LC50)
OVCAR-4 = type: cell-based; settings: OVCAR-4, Ovarian
LOX IMVI = settings: for GI50 / Total growth inhibition (TGI): Melanoma; for CC50: read-out: 50% lethal concentration (LC50), Melanoma
MOLT-4 = settings: MOLT-4, Leukemia; for CC50: read-out: 50% lethal concentration (LC50)
OVCAR-8 = settings: OVCAR-8, Ovarian; for CC50: read-out: 50% lethal concentration (LC50)
DU-145 = settings: DU-145, Prostate; for CC50: read-out: 50% lethal concentration (LC50)
SK-MEL-28 = settings: SK-MEL-28, Melanoma; for CC50: read-out: 50% lethal concentration (LC50)
MALME-3M = settings: for GI50 / Total growth inhibition (TGI): Melanoma
SF-539 = settings: SF-539, CNS; for CC50: read-out: 50% lethal concentration (LC50)
NCI-H23 = settings: for Total growth inhibition (TGI) / CC50: NCI-H23, Non-Small Cell Lung; for GI50: NCI-H23, Non-Small-Cell Lung; for CC50: read-out: 50% lethal concentration (LC50)
MDA-MB-468 = settings: MDA-MB-468, Breast; for CC50: read-out: 50% lethal concentration (LC50)
PC-3 = settings: PC-3, Prostate; for CC50: read-out: 50% lethal concentration (LC50)
A549/ATCC = settings: for Total growth inhibition (TGI): Non-Small Cell Lung; for GI50: Non-Small-Cell Lung; for CC50: read-out: 50% lethal concentration (LC50), Non-Small Cell Lung
SK-OV-3 = settings: SK-OV-3, Ovarian; for CC50: read-out: 50% lethal concentration (LC50)
RPMI-8226 = settings: RPMI-8226, Leukemia; for CC50: read-out: 50% lethal concentration (LC50)
NCI-H522 = settings: for Total growth inhibition (TGI) / CC50: NCI-H522, Non-Small Cell Lung; for GI50: NCI-H522, Non-Small-Cell Lung; for CC50: read-out: 50% lethal concentration (LC50)
UACC-257 = settings: UACC-257, Melanoma
[2] = read-out: 50% lethal concentration (LC50)

C=C1CCC2C3(C)COC(c4cn(-c5ccccc5)nc4-c4cccc([N+](=O)[O-])c4)OC3CCC2(C)C1CC=C1C(=O)OCC1O (centres unmarked) [1b]
GI50 (OVCAR-3): 1.87 µM
Total growth inhibition (TGI) (OVCAR-3): 3.75 µM
CC50 (OVCAR-3): 7.55 µM
GI50 (M14): 2.08 µM
LC50 (50% lethal concentration) (M14): 9.85 µM
Total growth inhibition (TGI) (M14): 4.52 µM
GI50 (HT29): 1.82 µM
Total growth inhibition (TGI) (HT29): 4.26 µM
CC50 (HT29): 9.95 µM
GI50 (HCT-116): 1.99 µM
Total growth inhibition (TGI) (HCT-116): 4.25 µM
GI50 (UACC-62): 1.69 µM
Total growth inhibition (TGI) (UACC-62): 3.46 µM
CC50 (UACC-62): 7.06 µM
% DPPH radical scavenging activity [1]: 60.68%
GI50 (U251): 1.74 µM
Total growth inhibition (TGI) (U251): 3.35 µM
CC50 (U251; [2]): 6.46 µM
GI50 (COLO 205): 2.41 µM
Total growth inhibition (TGI) (COLO 205): 5.06 µM
CC50 (COLO 205; [2]): 12.7 µM
GI50 (K-562): 2.16 µM
Total growth inhibition (TGI) (K-562): > 100 µM
CC50 (K-562): > 100 µM
GI50 (OVCAR-5): 2.06 µM
Total growth inhibition (TGI) (OVCAR-5): 5.05 µM
GI50 (HCT-15): 1.74 µM
Total growth inhibition (TGI) (HCT-15): 3.58 µM
CC50 (HCT-15): 7.37 µM
GI50 (OVCAR-4): 4.05 µM
Total growth inhibition (TGI) (OVCAR-4): > 100 µM
CC50 (OVCAR-4; [2]): > 100 µM
GI50 (LOX IMVI): 1.72 µM
Total growth inhibition (TGI) (LOX IMVI): 3.34 µM
CC50 (LOX IMVI): 6.48 µM
GI50 (MOLT-4): 2.87 µM
Total growth inhibition (TGI) (MOLT-4): > 100 µM
CC50 (MOLT-4): > 100 µM
GI50 (OVCAR-8): 1.9 µM
Total growth inhibition (TGI) (OVCAR-8): 5.04 µM
CC50 (OVCAR-8): > 100 µM
GI50 (DU-145): 4.11 µM
Total growth inhibition (TGI) (DU-145): 24.3 µM
CC50 (DU-145): > 100 µM
GI50 (SK-MEL-28): 2.04 µM
Total growth inhibition (TGI) (SK-MEL-28): 4.06 µM
CC50 (SK-MEL-28): 8.11 µM
GI50 (NCI/ADR-RES; Ovarian): 2.98 µM
GI50 (MALME-3M): 1.78 µM
Total growth inhibition (TGI) (MALME-3M): 3.55 µM
CC50 (MALME-3M; read-out: 50% lethal concentration (LC50), Melanoma): 7.05 µM
GI50 (SF-539): 1.74 µM
Total growth inhibition (TGI) (SF-539): 3.18 µM
CC50 (SF-539): 5.79 µM
Total growth inhibition (TGI) (NCI-H23): 3.55 µM
GI50 (NCI-H23): 1.83 µM
CC50 (NCI-H23): 6.87 µM
GI50 (MDA-MB-468): 1.76 µM
Total growth inhibition (TGI) (MDA-MB-468): 3.52 µM
CC50 (MDA-MB-468): 7 µM
GI50 (PC-3): 2.75 µM
Total growth inhibition (TGI) (PC-3): 9.04 µM
CC50 (PC-3): > 100 µM
Total growth inhibition (TGI) (A549/ATCC): > 100 µM
GI50 (A549/ATCC): 3.62 µM
CC50 (A549/ATCC): > 100 µM
GI50 (SK-OV-3): 2.08 µM
Total growth inhibition (TGI) (SK-OV-3): > 100 µM
CC50 (SK-OV-3): > 100 µM
GI50 (RPMI-8226): 2.45 µM
Total growth inhibition (TGI) (RPMI-8226): > 100 µM
CC50 (RPMI-8226): > 100 µM
Total growth inhibition (TGI) (NCI-H522): 3.41 µM
GI50 (NCI-H522): 1.75 µM
CC50 (NCI-H522): 6.65 µM
GI50 (UACC-257): 1.8 µM
Total growth inhibition (TGI) (UACC-257): 3.68 µM
CC50 (UACC-257; [2]): 7.53 µM

C=C1CCC2C3(C)COC(c4cn(-c5ccccc5)nc4-c4ccc(C)cc4)OC3CCC2(C)C1CC=C1C(=O)OCC1O (centres unmarked) [1i]
GI50 (OVCAR-3): 1.95 µM
Total growth inhibition (TGI) (OVCAR-3): 3.82 µM
CC50 (OVCAR-3): 7.49 µM
GI50 (M14): 1.76 µM
Total growth inhibition (TGI) (M14): 3.61 µM
GI50 (HT29): 1.9 µM
Total growth inhibition (TGI) (HT29): 4.58 µM
CC50 (HT29): > 100 µM
GI50 (HCT-116): 3.91 µM
Total growth inhibition (TGI) (HCT-116): 1.52 µM
GI50 (UACC-62): 1.64 µM
Total growth inhibition (TGI) (UACC-62): 3.15 µM
CC50 (UACC-62): 6.04 µM
% DPPH radical scavenging activity [1]: 56.31%
GI50 (U251): 2.61 µM
Total growth inhibition (TGI) (U251): 3.12 µM
GI50 (COLO 205): 1.97 µM
Total growth inhibition (TGI) (COLO 205): 4.5 µM
GI50 (K-562): 3.82 µM
Total growth inhibition (TGI) (K-562): > 100 µM
CC50 (K-562): > 100 µM
GI50 (OVCAR-5): 1.93 µM
Total growth inhibition (TGI) (OVCAR-5): 4.59 µM
CC50 (OVCAR-5; [2]): 40.5 µM
GI50 (HCT-15): 1.59 µM
Total growth inhibition (TGI) (HCT-15): 3.19 µM
CC50 (HCT-15): 6.38 µM
GI50 (OVCAR-4): 1.92 µM
Total growth inhibition (TGI) (OVCAR-4): 4.27 µM
GI50 (LOX IMVI): 1.43 µM
Total growth inhibition (TGI) (LOX IMVI): 2.74 µM
CC50 (LOX IMVI): 5.25 µM
GI50 (MOLT-4): 2.11 µM
Total growth inhibition (TGI) (MOLT-4): > 100 µM
CC50 (MOLT-4): > 100 µM
GI50 (OVCAR-8): 1.67 µM
Total growth inhibition (TGI) (OVCAR-8): 3.51 µM
CC50 (OVCAR-8): 7.37 µM
GI50 (DU-145): 2.05 µM
Total growth inhibition (TGI) (DU-145): 4.19 µM
CC50 (DU-145): 8.55 µM
GI50 (SK-MEL-28): 1.74 µM
Total growth inhibition (TGI) (SK-MEL-28): 3.33 µM
CC50 (SK-MEL-28): 6.39 µM
GI50 (NCI/ADR-RES; Ovarian): 1.65 µM
Total growth inhibition (TGI) (NCI/ADR-RES; Ovarian): 3.71 µM
CC50 (NCI/ADR-RES; read-out: 50% lethal concentration (LC50), Ovarian): 8.34 µM
GI50 (MALME-3M): 2.46 µM
Total growth inhibition (TGI) (MALME-3M): 4.28 µM
GI50 (SF-539): 1.79 µM
Total growth inhibition (TGI) (SF-539): 3.19 µM
CC50 (SF-539): 5.7 µM
Total growth inhibition (TGI) (NCI-H23): 3.5 µM
GI50 (NCI-H23): 1.76 µM
CC50 (NCI-H23): 6.96 µM
GI50 (MDA-MB-468): 1.85 µM
Total growth inhibition (TGI) (MDA-MB-468): 3.45 µM
CC50 (MDA-MB-468): 6.43 µM
GI50 (PC-3): 1.92 µM
CC50 (PC-3): > 100 µM
Total growth inhibition (TGI) (A549/ATCC): 13.5 µM
GI50 (A549/ATCC): 3.09 µM
CC50 (A549/ATCC): > 100 µM
GI50 (SK-OV-3): 3.47 µM
Total growth inhibition (TGI) (SK-OV-3): 12.1 µM
CC50 (SK-OV-3): > 100 µM
GI50 (RPMI-8226): 8.6 µM
Total growth inhibition (TGI) (RPMI-8226): > 100 µM
CC50 (RPMI-8226): > 100 µM
Total growth inhibition (TGI) (NCI-H522): 3.46 µM
GI50 (NCI-H522): 1.75 µM
CC50 (NCI-H522): 6.86 µM
GI50 (UACC-257): 1.74 µM
Total growth inhibition (TGI) (UACC-257): 3.47 µM

Source: PMC12298351, “Novel 3,19-(N-Phenyl-3-(4-fluorophenyl)-pyrazole) Acetal of Andrographolide Promotes Cell Cycle Arrest and Apoptosis in MDA-MB-231 Breast Cancer Cells” (Pharmaceuticals, 2025)
